Results as given in US20240308996A1, “PYRIDOPYRIDINES AND DERIVATIVES THEREOF AS SELECTIVE KINASE INHIBITORS” (University of Sharjah, priority 2023, published 2024).

How the values were obtained:
Assay type in all cases: cell-based
HL-60(TB) = assay: NCI-60 cell line panel: HL-60(TB); set-up: TGI: unit not given here; conditions: Leukemia
Experimental: (§1) It was carried out at the NCI, Bethesda, MD, USA, utilizing their standard protocol.

SK-MEL-28 = assay: NCI-60 cell line panel: SK-MEL-28; conditions: Melanoma
Experimental: as §1

M14 = assay: NCI-60 cell line panel: M14; conditions: Melanoma
Experimental: as §1

T-47D = assay: NCI-60 cell line panel: T-47D; conditions: Breast Cancer
Experimental: as §1

RPMI-8226 = assay: NCI-60 cell line panel: RPMI-8226; conditions: Leukemia
Experimental: as §1

TK-10 = assay: NCI-60 cell line panel: TK-10; conditions: Renal Cancer
Experimental: as §1

MDA-MB-435 = assay: NCI-60 cell line panel: MDA-MB-435; set-up: TGI: unit not given here; conditions: Melanoma
Experimental: as §1

SF-268 = assay: NCI-60 cell line panel: SF-268; conditions: CNS Cancer
Experimental: as §1

A498 = assay: NCI-60 cell line panel: A498; conditions: Renal Cancer
Experimental: as §1

CAKI-1 = assay: NCI-60 cell line panel: CAKI-1; set-up: TGI: unit not given here; conditions: Renal Cancer
Experimental: as §1

SW-620 = assay: NCI-60 cell line panel: SW-620; conditions: Colon Cancer
Experimental: as §1

OVCAR-5 = assay: NCI-60 cell line panel: OVCAR-5; conditions: Ovarian Cancer
Experimental: as §1

K-562 = assay: NCI-60 cell line panel: K-562; set-up: TGI: unit not given here
Experimental: as §1

SNB-75 = assay: NCI-60 cell line panel: SNB-75; set-up: TGI: unit not given here; conditions: CNS Cancer
Experimental: as §1

NCI/ADR-RES = assay: NCI-60 cell line panel: NCI/ADR-RES; set-up: TGI: unit not given here; conditions: Ovarian Cancer
Experimental: as §1

DU-145 = assay: NCI-60 cell line panel: DU-145; conditions: Prostate Cancer
Experimental: as §1

ACHN = assay: NCI-60 cell line panel: ACHN; conditions: Renal Cancer
Experimental: as §1

NCI-H226 = assay: NCI-60 cell line panel: NCI-H226; conditions: Non-Small Cell Lung Cancer
Experimental: as §1

SF-539 = assay: NCI-60 cell line panel: SF-539; conditions: CNS Cancer
Experimental: as §1

HCT-15 = assay: NCI-60 cell line panel: HCT-15; conditions: Colon Cancer
Experimental: as §1

IGROV1 = assay: NCI-60 cell line panel: IGROV1
Experimental: as §1

RXF 393 = assay: NCI-60 cell line panel: RXF 393; conditions: Renal Cancer
Experimental: as §1

SK-OV-3 = assay: NCI-60 cell line panel: SK-OV-3; conditions: Ovarian Cancer
Experimental: as §1

UO-31 = assay: NCI-60 cell line panel: UO-31; set-up: TGI: unit not given here; conditions: Renal Cancer
Experimental: as §1

SR = assay: NCI-60 cell line panel: SR; conditions: Leukemia
Experimental: as §1

HCC-2998 = assay: NCI-60 cell line panel: HCC-2998; conditions: Colon Cancer
Experimental: as §1

[1] = system: hepatocellular carcinoma cell lines; assay: Screening against HCC cell lines
Experimental: The target compounds were tested against hepatocellular carcinoma cell lines. Compounds 1j. 13a. 13b. 13c. […] The mean inhibition percentage values are illustrated in Table 9.
Two HCC cell lines (Hep3B and HepG2) were used for screening the antiproliferative activity of the synthesized compounds. The cell lines were obtained from the European Collection of Cell Cultures (ECACC, UK) and maintained in Dulbecco's Modified Eagle Medium (DMEM: Sigma-Aldrich) supplemented with 10% fetal bovine serum (FBS) and 1% penicillin/streptomycin and incubated at 37° C. in a 5% CO2 air atmosphere. In addition, WI-38 normal cell line was used to investigate the safety of these compounds.
MTT assay was conducted to calculate the IC50 of the compounds following the reported procedure . Briefly, the cells were seeded in 96-well tissue culture plates with a density of 5×10^4 cells/well and incubated overnight at 37° C. in a 5% CO2 air atmosphere. After that, cells were treated with the newly synthesized compounds or sorafenib as a positive control. DMSO was used as a negative control. After 48 h, the media were aspirated, and replaced with media containing 0.5 mg/mL of MTT tetrazolium dye (Sigma-Aldrich) for 2 h at 37° C. Finally, the media were removed and 200 μL of DMSO was added to solubilize the formazan crystals. Absorbance was then measured at 570 nm using Varioskan Flash multimode plate reader (Thermo Scientific, Massachusetts, USA).

CCRF-CEM = assay: NCI-60 cell line panel: CCRF-CEM; conditions: Leukemia
Experimental: as §1

MDA-MB-231/ATCC = assay: NCI-60 cell line panel: MDA-MB-231/ATCC; conditions: Breast Cancer
Experimental: as §1

KM12 = assay: NCI-60 cell line panel: KM12; conditions: Colon Cancer
Experimental: as §1

For `CCN1CCN(c2ccc(NC(=O)Nc3ccc(-c4cc(C(=O)NC(C)C)c5ncccc5n4)cc3)cc2C(F)(F)F)CC1` [Compound 13f, 2-(4-(3-(4-(4-Ethylpiperazin-1-yl)-3-(trifluoromethyl)phenyl)ureido)phenyl)-N-isopropyl-1,5-naphthyridine-4-carboxamide], the IC50 (HL-60(TB); Homo sapiens) was 1070 nM, the TGI (HL-60(TB); total growth inhibition) was 5.89 and the IC50 (SK-MEL-28; Homo sapiens) was 750 nM. For the same compound, the TGI (SK-MEL-28; total growth inhibition) was 1.85 µM, the IC50 (M14; Homo sapiens) was 720 nM and the TGI (M14; total growth inhibition) was 1.9 µM. It also gave a TGI (T-47D; total growth inhibition) of 8.74 µM, an IC50 (T-47D; Homo sapiens, T47D) of 1930 nM and an IC50 (RPMI-8226; Homo sapiens) of 1040 nM. It also gave a TGI (RPMI-8226; total growth inhibition) of over 34.5 µM, an IC50 (TK-10; Homo sapiens) of 1350 nM and a TGI (TK-10; total growth inhibition) of 4.87 µM. For the same compound, the IC50 (MDA-MB-435; Homo sapiens) was 650 nM, the TGI (MDA-MB-435; total growth inhibition) was 1.31 and the TGI (SF-268; total growth inhibition) was 10.9 µM. For the same compound, the IC50 (SF-268; Homo sapiens) was 3.56 µM, the IC50 (A498; Homo sapiens) was 5.11 µM and the TGI (A498; total growth inhibition) was 9.7 µM. For the same compound, the IC50 (CAKI-1; Homo sapiens) was 800 nM, the TGI (CAKI-1; total growth inhibition) was 2.08 and the TGI (SW-620; total growth inhibition) was 1.26 µM. The IC50 (SW-620; Homo sapiens) was 640 nM, the IC50 (OVCAR-5; Homo sapiens) was 1600 nM and the TGI (OVCAR-5; total growth inhibition) was 6.09 µM. The IC50 (K-562; Homo sapiens, K562, Leukemia) was 1000 nM, the TGI (K-562; Leukemia, total growth inhibition) was over 34.5 and the TGI (SNB-75; total growth inhibition) was 5.14. It also gave an IC50 (SNB-75; Homo sapiens) of 980 nM, an IC50 (NCI/ADR-RES; Homo sapiens) of 3.66 µM and a TGI (NCI/ADR-RES; total growth inhibition) of 10.00. The IC50 (DU-145; Homo sapiens) was 750 nM, the TGI (DU-145; total growth inhibition) was 1.58 µM and the IC50 (ACHN; Homo sapiens) was 1020 nM. The TGI (ACHN; total growth inhibition) was 3.47 µM, the IC50 (NCI-H226; Homo sapiens) was 5.02 µM and the TGI (NCI-H226; total growth inhibition) was 12.5 µM. The TGI (SF-539; total growth inhibition) was 1.02 µM, the IC50 (SF-539; Homo sapiens) was 530 nM and the TGI (HCT-15; total growth inhibition) was 1.35 µM. It also gave an IC50 (HCT-15; Homo sapiens) of 670 nM, an IC50 (IGROV1; Homo sapiens, IGROV-1, Ovarian Cancer) of 1420 nM and a TGI (IGROV1; Ovarian Cancer, total growth inhibition) of 5.11 µM. It also gave an IC50 (RXF 393; Homo sapiens) of 650 nM, a TGI (RXF 393; total growth inhibition) of 1.73 µM and an IC50 (SK-OV-3; Homo sapiens) of 5.33 µM. The TGI (SK-OV-3; total growth inhibition) was 1.08 µM, the IC50 (UO-31; Homo sapiens) was 2180 nM and the TGI (UO-31; total growth inhibition) was 6.81. For the same compound, the IC50 (SR; Homo sapiens) was 1050 nM, the TGI (SR; total growth inhibition) was 12.1 µM and the TGI (HCC-2998; total growth inhibition) was 5.09 µM. The IC50 (HCC-2998; Homo sapiens) was 1440 nM, the “inhibition activity against hepatocellular carcinoma cell lines compared with sorafenib” value [1] was “higher inhibition activity than sorafenib” and the IC50 (CCRF-CEM; Homo sapiens) was 1010 nM. The TGI (CCRF-CEM; total growth inhibition) was 3.1 µM, the TGI (MDA-MB-231/ATCC; total growth inhibition) was 1.18 µM and the IC50 (MDA-MB-231/ATCC; Homo sapiens) was 610 nM. For the same compound, the TGI (KM12; total growth inhibition) was 2.91 µM and the IC50 (KM12; Homo sapiens) was 1010 nM.
